# Results as given in US9879036B2, “Mitochondrial aldehyde dehydrogenase-2 binding compounds and methods of use thereof” (Aviv Therapeutics, Inc., priority 2014, dated 2018).
# Target: T1, ALDH2 (Homo sapiens, UniProt P05091)
# T1 construct: His-tag (N); made in house; host or cells: E. coli BL21
# T1 sequence (P05091 18-517): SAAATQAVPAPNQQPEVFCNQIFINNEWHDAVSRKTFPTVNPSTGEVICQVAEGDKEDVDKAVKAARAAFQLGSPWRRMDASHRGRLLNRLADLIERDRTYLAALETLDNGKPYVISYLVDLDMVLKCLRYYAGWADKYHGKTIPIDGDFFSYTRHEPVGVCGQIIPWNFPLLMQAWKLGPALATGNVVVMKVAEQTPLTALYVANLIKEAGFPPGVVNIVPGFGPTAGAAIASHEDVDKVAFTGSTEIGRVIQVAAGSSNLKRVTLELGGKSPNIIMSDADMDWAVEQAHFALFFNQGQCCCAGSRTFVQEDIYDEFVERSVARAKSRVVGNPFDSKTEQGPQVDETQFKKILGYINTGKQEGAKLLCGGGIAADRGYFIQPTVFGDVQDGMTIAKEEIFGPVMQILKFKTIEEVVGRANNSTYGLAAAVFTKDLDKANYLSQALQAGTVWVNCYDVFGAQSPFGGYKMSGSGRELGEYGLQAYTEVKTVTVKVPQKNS
# Assay: ALDH2 activity with 20 μM of the compound (Table 3)
# Format: biochemical
# Settings: 20 μM compound
# Description: (§1) ALDH2 catalyzes the oxidative reaction of substrate acetaldehyde to acetic acid using NAD^+ as a cofactor. Enzymatic activity, or catalytic rate, of aldehyde dehydrogenase (ALDH2) are measured spectrophotometrically at UV wavelength λ340 nm by the accumulation of reduced product NADH derived from NAD^+. Absorbance at λ340 nm is quantitatively proportional to the amount of NADH being produced over time (6.22 O.D. unit=1 mmol of NADH, measured in a 1-cm width standard cuvette). This method is well-established in the literature [e.g. Rex et al., Alcohol Clin. Exp. Res. 9, 147 (1985)].
# as §1, with “can be” for “are”
# ALDH2 catalyzes the oxidative reaction of substrate acetaldehyde to acetic acid using NAD^+ as a cofactor. Enzymatic activity, or catalytic rate, of aldehyde dehydrogenase (ALDH2) can be measured spectrophotometrically at UV wavelength λ340 nm by the accumulation of reduced product NADH derived from NAD^+. Because compounds of formula (I) are considered to be agonists or “activators” of ALDH2 the enzymatic activity measured will exceed 100% of the baseline enzymatic activity of the enzyme in its normal activation state. As the concentration of the compounds of formula (I) decreases from 20 micromolar to 0.16 micromolar in the presence of ALDH, a decrease in the activation of enzymatic activity is observed for the wild-type ALDH2*1/*1 and the heterozygous form ALDH2*1/*2.
row,SMILES,activity at 20 µM [%]
1,COc1ccc(CNC(=O)c2cc(-c3c[nH]nc3CO)ccc2OCC2CC2)cc1F [AC30],> 250
2,COc1ccc(CNC(=O)c2cc(-c3cnn(C)c3CO)ccc2OCC2CC2)cc1F [AC33],> 250
3,COc1ccc(CNC(=O)c2cc(-c3nc[nH]c3CO)ccc2OCC2CC2)cc1F [AC38],150 to 250
4,COc1ccc(CNC(=O)c2cc(-c3cn(C)nc3CO)ccc2OCC2CC2)cc1F [AC39],150 to 250
5,COc1ccc(CNC(=O)c2cc(-c3n[nH]cc3CO)cnc2OCC2CC2)cc1F [AC40],100 to 150
6,COc1ccc(CNC(=O)c2cc(-c3nocc3CO)cnc2OCC2CC2)cc1F [AC41],100 to 150
7,COc1ccc(CNC(=O)c2cc(-c3ncccc3CO)ccc2NCC2CC2)cc1F [AC42],150 to 250
8,O=C(NCc1ccc2c(c1)OCO2)c1cc(-c2ncccc2CO)ccc1OCC1CC1 [AC43],150 to 250
9,COc1ccc(CNC(=O)c2cc(-c3ncccc3CO)ccc2OCC2CC2)cc1OC [AC44],150 to 250
10,O=C(NCc1cc(Cl)c2c(c1)OCO2)c1cc(-c2ncccc2CO)ccc1OCC1CC1 [AC45],100 to 150
11,O=C(NCc1cc2c(cc1Cl)OCO2)c1cc(-c2ncccc2CO)ccc1OCC1CC1 [AC46],100 to 150
12,Cc1ccc(CNC(=O)c2cc(-c3ccccc3CO)cnc2OCC2CC2)cc1 [AC48],100 to 150
13,O=C(NCc1ccc(C(F)(F)F)cc1)c1cc(-c2ccccc2CO)cnc1OCC1CC1 [AC49],100 to 150
14,CC(C)(C)c1ccc(CNC(=O)c2cc(-c3ccccc3CO)cnc2OCC2CC2)cc1 [AC50],100 to 150
15,O=C(NCc1ccc(C(F)(F)F)cc1F)c1cc(-c2ccccc2CO)cnc1OCC1CC1 [AC51],100 to 150
16,O=C(NCc1ccc(Cl)cc1)c1cc(-c2ccccc2CO)cnc1OCC1CC1 [AC52],100 to 150
17,O=C(NCc1ccc(F)cc1)c1cc(-c2ccccc2CO)cnc1OCC1CC1 [AC53],100 to 150
18,O=C(NCc1ccc(Cl)c(Cl)c1)c1cc(-c2ccccc2CO)cnc1OCC1CC1 [AC54],150 to 250
19,O=C(NCc1ccccc1)c1cc(-c2ccccc2CO)cnc1OCC1CC1 [AC55],100 to 150
20,CNCc1ccccc1-c1cnc(OCC2CC2)c(C(=O)NCc2ccc(OC)c(F)c2)c1 [AC70],100 to 150
21,COc1ccc(CNC(=O)c2cc(-c3ccccc3OC)cnc2OCC2CC2)cc1F [AC74],100 to 150

row,SMILES,activity at 20 µM [%]
1,COc1ccc(CNC(=O)c2cc(-c3ccccc3C(=O)O)cnc2OCC2CC2)cc1F [AC75],100 to 150
2,COc1ccc(CNC(=O)c2cc(-c3ccccc3CN(C)C)cnc2OCC2CC2)cc1F [AC76],100 to 150
3,COc1ccc(CNC(=O)c2cc(-c3ccccc3/C=C/C(C)=O)cnc2OCC2CC2)cc1F [AC77],100 to 150
4,COc1ccc(CNC(=O)c2cc(-c3ccccc3OC)ccc2OCC2CC2)cc1F [AC78],100 to 150
5,COc1ccc(CNC(=O)c2cc(-c3ccccc3C(=O)N(C)C)cnc2OCC2CC2)cc1F [AC79],100 to 150
6,CCNC(=O)c1ccccc1-c1cnc(OCC2CC2)c(C(=O)NCc2ccc(OC)c(F)c2)c1 [AC80],100 to 150
7,COc1ccc(CNC(=O)c2cc(-c3ccccc3CCC(C)=O)cnc2OCC2CC2)cc1F [AC81],100 to 150
8,COc1ccc(CNC(=O)c2cc(-c3ccccc3O)ccc2OCC2CC2)cc1F [AC82],100 to 150
9,CNCc1ccccc1-c1ccc(OCC2CC2)c(C(=O)NCc2ccc(OC)c(F)c2)c1 [AC83],150 to 250
10,CCNCc1ccccc1-c1ccc(OCC2CC2)c(C(=O)NCc2ccc(OC)c(F)c2)c1 [AC84],150 to 250
11,COc1ccc(CNC(=O)c2cc(-c3ccccc3C(=O)O)ccc2OCC2CC2)cc1F [AC85],100 to 150
12,COc1ccc(CNC(=O)c2cc(-c3ccccc3C(C)O)cnc2OCC2CC2)cc1F (stereo not drawn) [AC89],100 to 150
13,COc1ccc(CNC(=O)c2cc(-c3ccccc3/C=N/O)cnc2OCC2CC2)cc1F [AC90],100 to 150
14,COc1ccc(CNC(=O)c2cc(-c3ccccc3C(N)=O)cnc2OCC2CC2)cc1F [AC91],100 to 150
15,COc1ccc(CNC(=O)c2cc(-c3ccccc3CCO)cnc2OCC2CC2)cc1F [AC92],100 to 150
16,COc1ccc(CNC(=O)c2cc(-c3cnccc3CO)ccc2O)cc1F [AC93],100 to 150
17,COc1ccc(CNC(=O)c2cc(-c3ncccc3CO)ccc2O)cc1F [AC94],100 to 150
18,COc1ccc(CNC(=O)c2cc(-c3cnccc3CO)ccc2OC)cc1F [AC95],150 to 250
19,COc1ccc(CNC(=O)c2cc(-c3ncccc3CO)ccc2OC)cc1F [AC96],150 to 250
20,CCOc1ccc(-c2cnccc2CO)cc1C(=O)NCc1ccc(OC)c(F)c1 [AC97],150 to 250
21,CCOc1ccc(-c2ncccc2CO)cc1C(=O)NCc1ccc(OC)c(F)c1 [AC98],150 to 250

row,SMILES,activity at 20 µM [%]
1,CCCOc1ccc(-c2cnccc2CO)cc1C(=O)NCc1ccc(OC)c(F)c1 [AC99],150 to 250
2,CCCOc1ccc(-c2ncccc2CO)cc1C(=O)NCc1ccc(OC)c(F)c1 [AC100],150 to 250
3,COc1ccc(CNC(=O)c2cc(-c3cnccc3CO)ccc2OC(C)C)cc1F [AC101],> 250
4,COc1ccc(CNC(=O)c2cc(-c3ncccc3CO)ccc2OC(C)C)cc1F [AC102],> 250
5,COc1ccc(CNC(=O)c2cc(-c3cnccc3CO)ccc2OC2CC2)cc1F [AC103],150 to 250
6,COc1ccc(CNC(=O)c2cc(-c3ncccc3CO)ccc2OC2CC2)cc1F [AC104],150 to 250
7,COc1ccc(CNC(=O)c2cc(-c3cnccc3CO)ccc2OC2CCC2)cc1F [AC105],150 to 250
8,COc1ccc(CNC(=O)c2cc(-c3ncccc3CO)ccc2OC2CCC2)cc1F [AC106],150 to 250
9,COc1ccc(CNC(=O)c2cc(-c3cnccc3CO)ccc2OC2CCCC2)cc1F [AC107],> 250
10,COc1ccc(CNC(=O)c2cc(-c3ncccc3CO)ccc2OC2CCCC2)cc1F [AC108],> 250
11,COc1ccc(CNC(=O)c2cc(-c3cnccc3CO)ccc2OC2CCCCC2)cc1F [AC109],> 250
12,COc1ccc(CNC(=O)c2cc(-c3ncccc3CO)ccc2OC2CCCCC2)cc1F [AC110],> 250
13,COc1ccc(CNC(=O)c2cc(-c3cnccc3CO)ccc2OCC(C)C)cc1F [AC111],> 250
14,COc1c(F)cc(CNC(=O)c2cc(-c3ncccc3CO)ccc2OCC2CC2)cc1F [AC145],150 to 250
15,COc1cc(F)c(CNC(=O)c2cc(-c3ncccc3CO)ccc2OCC2CC2)cc1F [AC146],> 250
16,COc1c(F)cc(CNC(=O)c2cc(-c3ncccc3CO)ccc2OCC2CC2)cc1Cl [AC147],150 to 250
17,COc1cc(OC)c(CNC(=O)c2cc(-c3ncccc3CO)ccc2OCC2CC2)cc1F [AC148],150 to 250
18,COc1ccc(CNC(=O)c2cc(-c3ncccc3CO)ccc2OCC2CC2)c(C)c1F [AC150],150 to 250
19,[2H]C(O)c1cccnc1-c1ccc(OCC2CC2)c(C(=O)NCc2ccc(OC)c(F)c2)c1 (stereo not drawn) [AC152],> 250
20,[2H]C([2H])([2H])Oc1ccc(CNC(=O)c2cc(-c3ncccc3CO)ccc2OCC2CC2)cc1F [AC153],> 250
21,[2H]C(O)c1cccnc1-c1ccc(OCC2CC2)c(C(=O)NCc2ccc(OC([2H])([2H])[2H])c(F)c2)c1 (stereo not drawn) [AC157],> 250
